# Patent US5373040A, “Amorphous solid modification of 2,2',2"-nitrilo[triethyl-tris-(3,3',5,5'-tetra-tert-butyl-1,1'-biphenyl- 2,2'-diyl)phosphite]” (Ciba-Geigy Corporation, priority 1993, dated 1994)
# Key:
# [1] = Process stabilization of polypropylene: yellowness index of plaques (ASTM D1925); details: 0.075% by weight of each additive, 0.075% calcium stearate
# Excerpt: (§1) The test additives are incorporated into the polypropylene by dry blending or, when the additive is a liquid, using a minimum amount of methylene chloride solvent. The solvent is then removed by evaporation under reduced pressure.
# [2] = Process stabilization of polypropylene at 525° F.: melt flow rate (ASTM D1238); details: 0.075% by weight of each additive, 0.075% calcium stearate, 525° F.
# Procedure: as §1
# After each of the first, third and fifth extrusions, the melt flow rate (in grams/10 minutes) is determined by ASTM method D1238 on the pellets obtained from the extruder.
# [3] = Apparent bulk density (ASTM D-1895); format: physicochemical
# Procedure: The apparent bulk density of the solids is measured according to the method of ASTM D-1895 (79). A higher apparent bulk density allows for a greater mass per unit volume which affords advantages in packaging of the solid product, such as lower costs for the packaging material, less storage space is required, etc.
# [4] = Solubility in LLDPE film by diffusion-in, X-ray fluorescence; format: physicochemical
# Procedure: Experiments are carried out to determine the solubility of the instant compound into linear low density polyethylene (LLDPE) films at 20° C., 40° C. and 60° C. by diffusion-in of a relatively homogeneous particle size (<70 microns) of the test sample suspended in silicon oil.
# Each sample is carefully ground with a mortar and pestle and the particle size below 70 microns is separated by sieving with a 200 mesh screen. The powder is then suspended in silicon oil (polydimethylsiloxane, L-45, Union Carbide Chemicals) at a concentration of approximately 38% (wt/wt). A few drops of this suspension is placed on a 10 mil (0.254 mm) thick, 2"×2" (5.08 cm×5.08 cm) compression molded film and a second film of the same dimension is placed on top. The films are gently pressed together so that the suspension forms a thin liquid layer between the polymer films. Excess suspension is removed and the procedure is repeated till a stack of eight films (six films for evaluation) are prepared. The stack is then placed between two 2.5"×2.5" (6.35 cm×6.35 cm) ceramic tiles and wrapped in aluminum foil and held together with a G-clamp. Each stack is aged at 20° C., 40° C. and 60° C. under a nitrogen atmosphere. At specified intervals, a single film is removed from the stack and the excess suspension is washed from the film with hexane. The film is then analyzed by X-ray fluorescence for total phosphorus content. LLDPE containing 0, 1000 ppm and 2000 ppm of the test compound are used as standard controls for this X-ray fluorescence method.
# [5] = Solubility in lubricating oil (Mobil BB oil); format: physicochemical
# Procedure: The following experiments are performed to determine the solubility of amorphous compound A and crystalline compound B in Mobil BB oil. Both compounds have the same uniform particle sizes (40-70 micron).
# Compound A=amorphous form of 2,2',2"-nitrilo-[triethyl-tris-(3,3',5,5'-tetra-tert-butyl-1,1'-biphenyl-2,2'-diyl) phosphite], prepared in accordance with instant Example 1.
# Compound B=crystalline form of 2,2',2"-nitrilo[triethyl-tris-(3,3',5,5'-tetra-tert-butyl-1,1'-biphenyl-2,2'-diyl) phosphite], prepared in accordance with Example 4 of U.S. Pat. No. 4,318,845.
# Into a vial of 980 mg. of Mobil BB oil is added 20 mg. of compound A at ambient temperature. For the first 30 minutes, the vial is shaken every 10 minutes. After the initial 30 minutes, the vial is left standing.
# Into a vial of 980 mg. of Mobil BB oil is added 20 mg. of compound B at ambient temperature. For the first 30 minutes, the vial is shaken every 10 minutes. After the initial 30 minutes, the vial is left standing.
# Into a vial of 980 mg. of Mobil BB oil is added 20 mg. of compound A at ambient temperature. The vial is then placed into a 60° C. oil bath.
# Into a vial of 980 mg. of Mobil BB oil is added 20 mg. of compound B at ambient temperature. The vial is then placed into a 60° C. oil bath.
# Into a vial of 990 mg. of Mobil BB oil is added 10 mg. of compound A at ambient temperature. […] is shaken every 10 minutes. After the initial 30 minutes, the vial is left standing.
# Into a vial of 990 mg. of Mobil BB oil is added 10 mg. of compound B at ambient temperature. […] is shaken every 10 minutes. After the initial 30 minutes, the vial is left standing.
# [6] = Solubility in lubricating oil (Mobil BB oil); format: physicochemical; details: 1% by weight in Mobil BB oil (Exp. 4f), at 60° C. per footnote
smiles,measurement,setting,value
"CC(C)(C)c1cc(CCC(=O)OCC(COC(=O)CCc2cc(C(C)(C)C)c(O)c(C(C)(C)C)c2)(COC(=O)CCc2cc(C(C)(C)C)c(O)c(C(C)(C)C)c2)COC(=O)CCc2cc(C(C)(C)C)c(O)c(C(C)(C)C)c2)cc(C(C)(C)C)c1O [Base, neopentanetetrayl tetrakis(3,5di-tert-butyl-4-hydroxyhydrocinnamate)]",Yellowness Index (YI) Values after Extrusion 5,[1]; after fifth extrusion,11.0
same,Yellowness Index (YI) Values after Extrusion 1,[1]; after first extrusion,7.6
same,Yellowness Index (YI) Values after Extrusion 3,[1]; after third extrusion,9.0
same,Melt Flow after Extrusion 5,[2]; after fifth extrusion,17.5 grams/10 minutes
same,Melt Flow after Extrusion 1,[2]; after first extrusion,8.1 grams/10 minutes
same,Melt Flow after Extrusion 3,[2]; after third extrusion,12.9 grams/10 minutes
"CC(C)(C)c1cc(C(C)(C)C)c2op(OCCN(CCOp3oc4c(C(C)(C)C)cc(C(C)(C)C)cc4c4cc(C(C)(C)C)cc(C(C)(C)C)c4o3)CCOp3oc4c(C(C)(C)C)cc(C(C)(C)C)cc4c4cc(C(C)(C)C)cc(C(C)(C)C)c4o3)oc3c(C(C)(C)C)cc(C(C)(C)C)cc3c2c1 [Example 4 of U.S. 4,318,845, 2,2',2""-nitrilo[triethyl-tris-(3,3',5,5'-tetra-tert-butyl-1,1'-biphenyl-2,2'-diyl)phosphite], reference compound]",Bulk Density,[3],0.44 g/mL
same,Solubility of Compound in LLDPE at 20° C.,[4]; interval 15 (time unit not given),1500 ppm
same,Solubility of Compound in LLDPE at 20° C.,[4]; interval 28 (time unit not given),1000 ppm
same,Solubility of Compound in LLDPE at 20° C.,[4]; interval 35 (time unit not given),1200 ppm
same,Solubility of Compound in LLDPE at 20° C.,[4]; interval 44 (time unit not given),1200 ppm
same,Solubility of Compound in LLDPE at 40° C.,[4]; interval 10 (time unit not given),500 ppm
same,Solubility of Compound in LLDPE at 40° C.,[4]; interval 17 (time unit not given),1750 ppm
same,Solubility of Compound in LLDPE at 40° C.,[4]; interval 25 (time unit not given),750 ppm
same,Solubility of Compound in LLDPE at 40° C.,[4]; interval 34 (time unit not given),400 ppm
same,Solubility of Compound in LLDPE at 40° C.,[4]; interval 40 (time unit not given),600 ppm
same,Solubility of Compound in LLDPE at 40° C.,[4]; interval 47 (time unit not given),1400 ppm
same,Solubility of Compound in LLDPE at 20° C.,"[4]; third section, interval 6 (time unit not given)",1000 ppm
same,Solubility of Compound in LLDPE at 20° C.,"[4]; third section, interval 14 (time unit not given)",800 ppm
same,Solubility of Compound in LLDPE at 20° C.,"[4]; third section, interval 22 (time unit not given)",1000 ppm
same,Solubility of Compound in LLDPE at 20° C.,"[4]; third section, interval 28 (time unit not given)",900 ppm
same,Solubility of Compound in LLDPE at 20° C.,"[4]; third section, interval 37 (time unit not given)",900 ppm
same,Observation,"[5]; 1% by weight in Mobil BB oil, RT, 1.5 hrs., listed as B",Cloudy
same,Observation,"[5]; 1% by weight in Mobil BB oil, RT, 1.5 hrs., listed as compound B",cloudy suspension
same,Time to clear solution,"[5]; 1% by weight in Mobil BB oil, RT, listed as compound B",16 h
same,Observation,"[5]; 2% by weight in Mobil BB oil, 60° C. oil bath, 10 min., listed as B",Cloudy
same,Observation,"[5]; 2% by weight in Mobil BB oil, 60° C. oil bath, 10 min., listed as compound B",cloudy suspension
same,Time to clear solution,"[5]; 2% by weight in Mobil BB oil, 60° C. oil bath, listed as B",5 h
same,Time to clear solution,"[5]; 2% by weight in Mobil BB oil, 60° C. oil bath, listed as compound B",16 h
same,Observation,"[5]; 2% by weight in Mobil BB oil, RT, 2.5 hrs., listed as B",Cloudy
same,Observation,"[5]; 2% by weight in Mobil BB oil, RT, 2.5 hrs., listed as compound B",cloudy suspension
same,Time to clear solution,"[5]; 2% by weight in Mobil BB oil, RT, listed as B",16 h
same,Time to clear solution,"[5]; 2% by weight in Mobil BB oil, RT, listed as compound B",16 h
same,Time to clear solution,[6],5 h
